# What was measured:
# [1] = tested on: KSR-stimulated MEK and ERK phosphorylation; assay: Cell-based reconstitution system monitoring KSR-driven MAPK signaling
# Source text: To assess the biological function of lead compounds as Ras-MAPK pathway antagonists, a simplified cell-based reconstitution system was developed to directly monitor KSR-driven MAPK signaling. […] Based on similarity in phenotype and direct-binding activity, Compound 21 was identified as a small molecule mimic of KSR alleles that suppress oncogenic Ras mutations.
# HEK293 cells = assay: FBS-induced ERK activation in serum-starved HEK293 cells; format: cell-based; conditions: 2 h pre-treatment, 5% FBS induction, compared with KSR1 siRNA
# Protocol: FIGS. 10A-10B show KSR1 knockdown and Compound 21 treatment similarly block FBS-induced ERK activation. In FIG. 10A, HEK293 cells were serum starved for 24 hours and simultaneously treated with two independent siRNAs against KSR1. siNTC was used as a scrambled control. After induction with 5% FBS, cells were harvested at […]. In FIG. 10B, HEK293 cells were similarly serum starved and pre-treated with Compound 21 for 2 h before induction. The cells were then induced with FBS as in FIG. 10A.
# RAF = assay: Inhibitory activity against purified RAF; format: biochemical
# [2] = target: KSR2 (purified hKSR2-rMEK1 complex) (Homo sapiens (Human), UniProt Q6VAB6); assay: ATP-biotin probe labeling and inhibitor competition (KSR2 band); format: binding; conditions: ATPbiotin probe labeling competition; 0.1 μM KSR2:MEK1; 27 nM to 20 μM compound; triplicate; read-out: KSR2 IC50
# Sequence of KSR2 (purified hKSR2-rMEK1 complex) (Q6VAB6 634-950): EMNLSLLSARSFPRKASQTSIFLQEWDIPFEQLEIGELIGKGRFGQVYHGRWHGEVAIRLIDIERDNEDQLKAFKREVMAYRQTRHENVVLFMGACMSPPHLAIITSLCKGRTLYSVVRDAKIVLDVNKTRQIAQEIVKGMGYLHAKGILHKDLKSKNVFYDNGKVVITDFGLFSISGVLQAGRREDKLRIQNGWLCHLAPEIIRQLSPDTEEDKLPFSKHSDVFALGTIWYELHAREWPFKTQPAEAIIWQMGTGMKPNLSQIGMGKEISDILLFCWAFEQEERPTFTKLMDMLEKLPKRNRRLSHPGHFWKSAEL
# Sequence of KSR2 (purified hKSR2-rMEK1 complex) (P29678 whole entry partner, the tested form may be a part): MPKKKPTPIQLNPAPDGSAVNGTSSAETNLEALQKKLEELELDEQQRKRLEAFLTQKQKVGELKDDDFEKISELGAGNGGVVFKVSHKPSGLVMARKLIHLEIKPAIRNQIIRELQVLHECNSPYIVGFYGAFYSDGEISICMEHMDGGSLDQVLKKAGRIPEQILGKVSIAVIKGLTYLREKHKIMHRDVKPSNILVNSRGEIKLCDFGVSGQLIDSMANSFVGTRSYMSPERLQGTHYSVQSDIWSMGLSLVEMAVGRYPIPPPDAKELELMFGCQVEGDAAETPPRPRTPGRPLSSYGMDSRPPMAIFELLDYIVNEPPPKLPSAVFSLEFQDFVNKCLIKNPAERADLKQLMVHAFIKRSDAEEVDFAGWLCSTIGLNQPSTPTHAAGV
# Source text: Human KSR2 (residues 634-950) and rabbit MEK1 (residues 1 to 393) were codon optimized for insect cell expression by DNA 2.0. Inserts were expressed with TEV cleavable 6×-His tags from the pFastBac Dual expression vector. Bacmids were used to transfect adherent SF21 cells and viruses were subsequently titred to high levels through serial infections of SF21 cells. […] Briefly, following infections, cells were harvested, lysed, and affinity purified using Co2+ sepharose resin (GoldBio). […] Dialysis retentate was diluted 3 fold and then applied to a Resourse S ion exchange column. […] One-to-one hKSR2-MEK1 complexes were captured in late fractions from an increasing salt gradient. Complexes were later applied to a 120 mL Superdex 200 gel filtration column and finally concentrated to approximately 10 mg/mL before flash freezing for biochemical assays.
# The ATP-biotin assay was performed in buffer containing 25 mM Tris pH 7.5, 150 mM NaCl, 10 mM MgCl2, and 2% DMSO. […] In particular, hKSR2-rMEK1 was pre-incubated with 20 μM of the indicated compounds for 15 minutes. Then, ATP-biotin (Pierce Cat. #88310) was added to a final concentration of 2 μM. Reactions were incubated at room temperature for 5 minutes before being stopped by the addition of 6×SDS loading dye. […] Enhanced chemiluminescence signals corresponding to labeling on KSR2 and MEK1 were visualized and quantified using the Biodoc system (Biorad). Relative signals of Streptavidin HRP on bands corresponding to KSR2 and MEK1 in the presence of compounds relative to DMSO controls were used to determine ‘Percent Inhibition of ATP Probe Labeling’.
# For the ATP^biotin labeling competition screen, samples were applied to a 4-20% Tris-HCl gel, separated, and then transferred to a nitrocellulose membrane. The membrane was blocked with 5% bovine serum albumin diluted in TBS-T for 30 minutes and subsequently probed with the Pierce™ High Sensitivity Streptavidin-HRP. After several washes, the membranes were visualized using enhanced chemiluminescence on a Biodoc (Biorad).
# [3] = tested on: ERK phosphorylation in HCT-116 cell line; assay: ERK phosphorylation dose response to trametinib, HCT-116; format: cell-based; conditions: HCT-116 (Ras-mutant)
# ERK = assay: Inhibitory activity against purified ERK; format: biochemical
# A549 = assay: Cell viability, combination with trametinib, A549; format: cell-based; conditions: A549 (Ras-mutant)
# Protocol: (§1) High BLISS scores indicate statistically significant synergy between Compound 21 and trametinib specifically within K-Ras mutant cells. Numbers listed within synergy matrices, representing % growth inhibition relative to DMSO controls, are mean of two replicates. Insets highlight dose responses of trametinib in the absence or presence of 1 μM Compound 21.
# (§2) The viability ratio represented the viability observed for treated (inhibitors) relative to controls (DMSO).
# HCT-116 = assay: Cell viability, combination with trametinib, HCT-116; format: cell-based
# Protocol: as §1
# FIGS. 13A-13D show data validating that Compound 21 is synergistic with trametinib in Ras-mutant cells. […] FIGS. 13C-13D show log of the combination index (CI) graphs of Compound 21 in combination with trametinib in HCT-116 vs. SK-MEL-239 cells as compared to the fractional effect (Fa).
# as §2
# KSR2:B-RAF^F667E dimers = KSR2:B-RAF^F667E dimers (Homo sapiens, UniProt Q6VAB6); assay: Biolayer inferometry of KSR2:B-RAF dimerization (Octet Red96); format: binding; conditions: compound at 25 μM
# Protocol: B-RAF and B-RAF mutants (F667E+/−R509H) were immobilized on sensor-heads and KSR2:MEK1 or MEK1 assembly was monitored. Curves indicate dose ranges of KSR2:MEK1 or MEK1 from 625 nM to 10 μM. In all plots, association occurred from 0 to 660 seconds, and dissociation was monitored thereafter up to 1500 seconds. Compound 21 and trametinib were added in the presence of KSR2:MEK1 at a concentration of 25 μM each.
# To directly investigate the impact of Compound 21 on KSR2:B-RAF dimerization, bio-layer inferometry (BLI) was utilized to monitor real-time association and dissociation of KSR2:MEK1 or free MEK1 to a sensor tethered with immobilized B-RAF.
# To specifically monitor KSR2:B-RAF dimerization relative to other possible interactions, a mutation in B-RAF^F667E was identified that eliminates binding to free MEK but not KSR2-MEK1 complexes, as shown in FIGS. 7C-7D. […]
# Interactions between purified B-RAF and the KSR2:MEK1 complex were measured using biolayer inferometry on the Octet Red96 system (Forte Bio). […] Association and dissociation was monitored over 660 and 840 seconds, respectively. Data sets were normalized and analysed using global fit binding models (Fortebio software). […]
compound,measurement,setting,value
"COc1cc2ncnc(Nc3ccc(Oc4ccccc4)cc3C)c2cc1OC [Compound 21, 6,7-Dimethoxy-N-(2-methyl-4-phenoxyphenyl)quinazolin-4-amine 2,2,2-trifluoroacetate]",suppression of KSR-stimulated MEK and ERK phosphorylation,[1]; KSR expression-dependent MAPK signaling,suppressed
same,suppression of KSR-stimulated MAPK signaling with active site mutant KSR^A690F,[1]; KSR^A690F mutant,greatly diminished the activity
same,effect on FBS-induced ERK activation,HEK293 cells,mimic the effects of RNAi based knockdown of KSR1
same,inhibitory activity against purified RAF,RAF,lacked detectable inhibitory activity
same,IC50,[2],120 ± 23 nM
same,enhancement in the IC90 of trametinib on ERK phosphorylation,[3],2 fold
same,inhibitory activity against purified ERK,ERK,lacked detectable inhibitory activity
same,shift of cell viability dose response to trametinib,A549,shifted the cell viability dose response to trametinib
same,shift of cell viability dose response to trametinib,HCT-116; HCT-116 (Ras-mutant),shifted the cell viability dose response to trametinib
same,combination index (CI) with trametinib,"HCT-116; HCT-116, negative log CI over broad Fa range",strong synergy
same,association of KSR2:MEK1 with immobilized B-RAF^F667E,KSR2:B-RAF^F667E dimers,did not associate

# From patent publication US10548897B2, “KSR antagonists” (Icahn School of Medicine at Mount Sinai, priority 2015, dated 2020)
